Measured values published in patent US12559529B2, “NPY2 receptor agonists” (Boehringer Ingelheim International GmbH, priority 2019, dated 2026).

Experiments:
[1] = target: T1, Human Neuropeptide Y2 Receptor (Homo sapiens, UniProt P49146); test: Radioligand binding competition assay (RLB)
T1 construct: purchased CHEMICON HTS066M
T1 sequence (P49146 1-381): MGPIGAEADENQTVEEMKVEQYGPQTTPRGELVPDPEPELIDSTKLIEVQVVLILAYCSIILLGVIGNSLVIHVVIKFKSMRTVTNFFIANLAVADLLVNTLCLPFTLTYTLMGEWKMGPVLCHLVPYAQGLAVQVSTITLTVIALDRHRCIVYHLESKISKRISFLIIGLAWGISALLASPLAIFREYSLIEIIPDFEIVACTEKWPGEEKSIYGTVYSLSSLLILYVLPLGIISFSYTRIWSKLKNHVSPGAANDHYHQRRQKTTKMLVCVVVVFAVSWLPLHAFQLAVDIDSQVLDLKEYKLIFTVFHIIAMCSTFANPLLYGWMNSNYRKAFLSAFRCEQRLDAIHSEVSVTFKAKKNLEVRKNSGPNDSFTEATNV
How it was run: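 Filtration format; Y2R membrane prep 0.5 μg/well; buffer 50 mM HEPES/5 mM MgCl2/1 mM CaCl2/0.2% ovalbumin pH 7.4; 2 h RT, shaking. Harvest on PEI-soaked GF/C, ice-cold HEPES/500 mM NaCl washes, scintillation count. IC50 by nonlinear fit.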

human NPY1 receptor = target: T2, human NPY1 receptor (Homo sapiens, UniProt P25929); test: HTRF cAMP Gi assay, hY1R; assay type: cell-based; settings: Table 4; CHO-K1 cells
T2 construct: expressed in transfected cells; host or cells: CHO-K1
T2 sequence (P25929 1-384): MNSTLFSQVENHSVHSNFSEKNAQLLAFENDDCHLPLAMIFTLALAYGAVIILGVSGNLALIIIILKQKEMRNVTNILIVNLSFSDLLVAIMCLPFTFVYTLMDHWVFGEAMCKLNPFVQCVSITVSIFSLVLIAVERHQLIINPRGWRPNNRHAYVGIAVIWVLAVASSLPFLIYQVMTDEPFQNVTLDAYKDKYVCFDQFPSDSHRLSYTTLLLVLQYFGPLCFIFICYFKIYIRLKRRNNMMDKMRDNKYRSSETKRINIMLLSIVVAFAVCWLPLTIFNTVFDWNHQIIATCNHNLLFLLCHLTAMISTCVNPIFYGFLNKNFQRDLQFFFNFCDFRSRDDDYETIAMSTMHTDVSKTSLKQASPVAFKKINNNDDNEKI

human NPY4 receptor = target: T3, human NPY4 receptor (Homo sapiens, UniProt P50391); test: HTRF cAMP Gi assay, hY4R; assay type: cell-based; settings: Table 4; CHO-K1 cells
T3 construct: expressed in transfected cells; host or cells: CHO-K1
T3 sequence (P50391 whole entry): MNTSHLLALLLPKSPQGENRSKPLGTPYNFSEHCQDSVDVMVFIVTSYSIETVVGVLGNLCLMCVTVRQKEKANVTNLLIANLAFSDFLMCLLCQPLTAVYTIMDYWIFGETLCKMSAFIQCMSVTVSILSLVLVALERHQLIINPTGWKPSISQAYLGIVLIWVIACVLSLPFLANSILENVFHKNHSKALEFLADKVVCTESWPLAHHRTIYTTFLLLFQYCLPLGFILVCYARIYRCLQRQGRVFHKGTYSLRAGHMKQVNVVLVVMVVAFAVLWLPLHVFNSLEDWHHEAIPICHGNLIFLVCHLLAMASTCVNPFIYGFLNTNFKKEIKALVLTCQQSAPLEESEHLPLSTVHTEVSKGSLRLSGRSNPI
Text: (§1) The Homogenous Time Resolved fluorescence (HTRF) technology optimized for Gi coupled receptors has thoroughly been described in Cisbio cAMP Gi kit manual. Briefly, the production of intracellular cAMP will generate a competition between unlabeled cAMP and exogenously added d2-cAMP for anti-cAMP antibodies conjugated to cryptate. CHO-K1 cells stably expressing the human NPY1, NPY2, NPY4 and NPY5 receptors were used with the cells brought to life from a frozen stock immediately before assay performance. 2000 cells per well were applied for all four NPY receptor subtype assays. A 384-well format was used applying a total volume of 20 μl using 5 μl cells, 2.5 μl peptide agonist, 2.5 μl forskolin and 5 μl of each of the fluorophores. […] Concentration-response evaluation of compounds was performed with 11 concentrations of agonist peptides (covering 3 decades). EC50 values were calculated by nonlinear regression using sigmoid concentration-response with variable slope.

[2] = target: T1, Human Neuropeptide Y2 Receptor; test: Activity (RLB) after incubation in solutions at different pH values; assay type: binding; settings: apparent Ki of filtrate after 2 h in buffer
Protocol: The filtration RLB assay was carried out in 96-well plates in a final volume of 100 μl per well. Freeze-dried test peptides were dissolved in 100% dimethyl sulfoxide (DMSO) to stock solutions of 1 mM and serial dilutions were performed in assay buffer (50 mM HEPES, 5 mM MgCl2, 1 mM CaCl2), pH 7.4) containing 0.2% ovalbumin. […] Next, 80 μL membranes (HTS066M, ChemiSCREEN™ Human Neuropeptide Y2 Receptor Membrane Preparation, CHEMICON) were added to each well to give a final protein concentration of 0.5 μg/well. The plates were sealed and incubated at room temperature for 2 hours in a plate shaker set at 400 rpm. The incubation was stopped by vacuum filtration onto 0.5% poly-ethylene amine (PEI) presoaked GF/C filters using a 96-well FilterMate™ harvester (Perkin Elmer) followed by four washes with 300 μl/well ice-cold wash buffer (50 mM HEPES, 500 mM NaCl, pH7.4). Filter plates were then dried for 60 min at room temperature and the bottom of the plates was sealed with backing tape UniFilter-96. Finally, 50 μl/well scintillation counter cocktail (Microscint20, Packard) was added and the radioactivity was counted in the Packard TopCount NXT scintillation counter. IC50 values (the half maximal inhibitory concentration of the agonist) were calculated by nonlinear regression analysis of sigmoidal dose-response curves.
Peptides (as TFA salts) were weighed out in a filter unit (Mini-UniPrep Syringeless Filter 0.45 μm, Whatman), and 0.1 M sodium diphosphate buffer at pH 6.4 or 7.4, respectively, or 0.2 M TRIS buffer at pH 8.3 was added to achieve 10 mg/ml final concentration. The peptide was (partially) dissolved by shaking the filter unit horizontally at approx. 400 rpm for 2 hours at room temperature. The sample was filtered to remove any insoluble particles.

human NPY2 receptor = target: T4, human NPY2 receptor (Homo sapiens, UniProt P49146); test: HTRF cAMP Gi assay, hY2R
T4 sequence (P49146 1-381): T1 sequence (P49146 1-381)

human NPY5 receptor = target: T5, human NPY5 receptor (Homo sapiens, UniProt Q15761); test: HTRF cAMP Gi assay, hY5R
T5 sequence (Q15761 1-445): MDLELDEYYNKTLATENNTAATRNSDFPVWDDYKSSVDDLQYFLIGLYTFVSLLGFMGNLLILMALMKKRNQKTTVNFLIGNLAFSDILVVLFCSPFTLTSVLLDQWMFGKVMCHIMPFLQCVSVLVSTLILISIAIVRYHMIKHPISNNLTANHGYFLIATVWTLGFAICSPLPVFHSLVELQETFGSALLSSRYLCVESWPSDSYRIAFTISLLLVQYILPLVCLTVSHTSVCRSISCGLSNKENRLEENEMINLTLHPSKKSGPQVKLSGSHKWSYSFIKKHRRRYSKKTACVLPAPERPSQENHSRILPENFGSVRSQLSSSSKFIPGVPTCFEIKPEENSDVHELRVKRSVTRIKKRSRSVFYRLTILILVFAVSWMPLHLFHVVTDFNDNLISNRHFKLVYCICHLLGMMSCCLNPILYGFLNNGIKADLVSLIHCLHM
Text: as §1

[3] = Table 3, human 125I-PYY (1-36) 0.02 nM, Y2 receptor membranes, read-out: Ki
[4] = Table 8, from DMSO stock, read-out: hY2R RLB Ki (nM) DMSO
[5] = pH6.1-6.2, assumed 10 mg/ml, read-out: RLB 6 (pH6.1-6.2)
[6] = pH7.1-7.2, assumed 10 mg/ml, read-out: RLB 7 (pH7.1-7.2)
[7] = pH8.1-8.2, assumed 10 mg/ml, read-out: RLB 8 (pH8.1-8.2)

Row | Ki [1, 3] [nM] | Ki [1, 4] [nM] | EC50 (human NPY1 receptor) [nM] | EC50 (human NPY4 receptor) [nM] | Ki [2, 5] [nM] | Ki [2, 6] [nM] | Ki [2, 7] [nM] | EC50 (human NPY2 receptor) [nM] | EC50 (human NPY5 receptor) [nM] | SMILES
1 | 0.63 | 4.9 | > 5000 | > 5000 | 6.3 | 6.3 | 6.3 | 0.15 | > 5000 | CC[C@H](C)[C@H](NC(=O)[C@H](CCC(=O)O)NC(=O)[C@H](CCC(=O)O)NC(=O)[C@@H]1CCCN1C(=O)[C@H](CO)NC(=O)[C@H](C)NC(=O)[C@H](CC(=O)O)NC(=O)[C@H](CCC(=O)O)NC(=O)[C@H](CCC(=O)O)NC(=O)[C@@H]1CCCN1C(=O)[C@H](CCCCNC(=O)COCCOCCNC(=O)COCCOCCNC(=O)CC[C@H](NC(=O)CCCCCCCCCCCCCCCCC(=O)O)C(=O)O)NC(=O)[C@H](C)NC(=O)[C@@H]1CCCN1C(=O)[C@H](C)NC(=O)CC(C)C)C(=O)N[C@@H](CCC(N)=O)C(=O)N[C@@H](CCCNC(=N)N)C(=O)N[C@@H](Cc1ccc(O)cc1)C(=O)N[C@@H](Cc1ccc(O)cc1)C(=O)N[C@H](C(=O)N[C@@H](CO)C(=O)N[C@@H](CC(C)C)C(=O)N[C@@H](CCCNC(=N)N)C(=O)N[C@@H](Cc1c[nH]cn1)C(=O)N[C@@H](Cc1ccc(O)cc1)C(=O)N[C@@H](Cc1ccc(O)cc1)C(=O)N[C@@H](CC(N)=O)C(=O)N[C@@H](Cc1c[nH]c2ccccc12)C(=O)N[C@@H](CC(C)C)C(=O)N[C@H](C(=O)N[C@@H](CCCNC(=N)N)C(=O)N[C@@H](CCC(N)=O)C(=O)N[C@@H](CCCNC(=N)N)C(=O)N[C@@H](Cc1ccc(O)cc1)C(N)=O)[C@@H](C)O)C(C)C [Compound 23, N{alpha-4}-(3-methylbutanoyl)-N{epsilon-7}-[2-(2-{2-[2-(2-{2-[(4S)-4-carboxy-4-(17-carboxyheptadecanamido)butanamido]ethoxy}ethoxy)acetamido]ethoxy}ethoxy)acetamido]-[4A,6A,7K,9E,17I,18Q,22V,28Y,30W,31L]hPYY (4-36)]
2 | 0.24 | 2 | > 5000 | > 5000 | 3.4 | 3.1 | 2.5 | 0.119 | > 5000 | CC[C@H](C)[C@H](NC(=O)[C@H](CCC(=O)O)NC(=O)[C@H](CCC(=O)O)NC(=O)[C@@H]1CCCN1C(=O)[C@H](CO)NC(=O)[C@H](C)NC(=O)[C@H](CC(=O)O)NC(=O)[C@H](C)NC(=O)[C@H](CCC(=O)O)NC(=O)[C@@H]1CCCN1C(=O)[C@H](CCCCNC(=O)COCCOCCNC(=O)COCCOCCNC(=O)CC[C@H](NC(=O)CCCCCCCCCCCCCCCCC(=O)O)C(=O)O)NC(=O)[C@H](CCC(=O)O)NC(=O)[C@@H]1CCCN1C(=O)[C@H](C)NC(=O)CC(C)C)C(=O)N[C@@H](CCC(N)=O)C(=O)N[C@@H](CCCNC(=N)N)C(=O)N[C@@H](Cc1ccc(O)cc1)C(=O)N[C@@H](Cc1ccc(O)cc1)C(=O)N[C@H](C(=O)N[C@@H](CO)C(=O)N[C@@H](CC(C)C)C(=O)N[C@@H](CCCNC(=N)N)C(=O)N[C@@H](Cc1c[nH]cn1)C(=O)N[C@@H](Cc1ccc(O)cc1)C(=O)N[C@@H](Cc1ccc(O)cc1)C(=O)N[C@@H](CC(N)=O)C(=O)N[C@@H](Cc1c[nH]c2ccccc12)C(=O)N[C@@H](CC(C)C)C(=O)N[C@H](C(=O)N[C@@H](CCCNC(=N)N)C(=O)N[C@@H](CCC(N)=O)C(=O)N[C@@H](CCCNC(=N)N)C(=O)N[C@@H](Cc1ccc(O)cc1)C(N)=O)[C@@H](C)O)C(C)C [Compound 53, N{alpha-4}-(3-methylbutanoyl)-N{epsilon-7}-[2-(2-{2-[2-(2-{2-[(4S)-4-carboxy-4-(17-carboxyheptadecanamido)butanamido]ethoxy}ethoxy)acetamido]ethoxy}ethoxy)acetamido]-[4A,7K,9E,10A,17I,18Q,22V,28Y,30W,31L]hPYY (4-36)]
3 | 0.66 | 6 | > 5000 | > 5000 | 7.7 | 9.3 | 7.5 | 0.173 | > 5000 | CC(C)CC(=O)N[C@@H](C)C(=O)N1CCC[C@H]1C(=O)N[C@@H](C)C(=O)N[C@@H](CCCCNC(=O)COCCOCCNC(=O)COCCOCCNC(=O)CC[C@H](NC(=O)CCCCCCCCCCCCCCCCC(=O)O)C(=O)O)C(=O)N1CCC[C@H]1C(=O)N[C@@H](CCC(=O)O)C(=O)N[C@@H](CCC(=O)O)C(=O)N[C@@H](CC(=O)O)C(=O)N[C@@H](C)C(=O)N[C@H](C(=O)N1CCC[C@H]1C(=O)N[C@@H](CCC(=O)O)C(=O)N[C@@H](CCC(=O)O)C(=O)N[C@@H](CC(C)C)C(=O)N[C@@H](CCC(N)=O)C(=O)N[C@@H](CCCNC(=N)N)C(=O)N[C@@H](Cc1ccc(O)cc1)C(=O)N[C@@H](Cc1ccc(O)cc1)C(=O)N[C@H](C(=O)N[C@@H](CO)C(=O)N[C@@H](CC(C)C)C(=O)N[C@@H](CCCNC(=N)N)C(=O)N[C@@H](Cc1c[nH]cn1)C(=O)N[C@@H](Cc1ccc(O)cc1)C(=O)N[C@@H](Cc1ccc(O)cc1)C(=O)N[C@@H](CC(N)=O)C(=O)N[C@@H](Cc1c[nH]c2ccccc12)C(=O)N[C@@H](CC(C)C)C(=O)N[C@H](C(=O)N[C@@H](CCCNC(=N)N)C(=O)N[C@@H](CCC(N)=O)C(=O)N[C@@H](CCCNC(=N)N)C(=O)N[C@@H](Cc1ccc(O)cc1)C(N)=O)[C@@H](C)O)C(C)C)[C@@H](C)O [Compound 106, N{alpha-4}-(3-methylbutanoyl)-N{epsilon-7}-[2-(2-{2-[2-(2-{2-[(4S)-4-carboxy-4-(17-carboxyheptadecanamido)butanamido]ethoxy}ethoxy)acetamido]ethoxy}ethoxy)acetamido]-[4A,6A,7K,9E,13T,18Q,22V,28Y,30W,31L]hPYY (4-36)]
